# Entries after “also recorded” stand apart in the source; their conditions may differ.
# Tests used:
# [1] = test system: APPs; conditions: 10 mg/kg P.O. bid, 7 days
# Method: (§1) The cells were washed twice with phosphate-buffered saline (PBS) at 37° C. and subsequently lysed and scraped in 1 ml ice-cold protein lysis buffer (20 mM Tris-HCl, pH7.4, 2 mM EGTA, 2 mM EDTA, […] leupeptin and […] aprotinin) at 4° C. […] Briefly, cells were homogenized 10× in 15 ml glass homogenizer with a tight-fitting pestle and centrifuged at 900×g for 10 min. The resulting supernatant was then centrifuged at 100,000×g for 60 min to produce a nucleus-free membrane fraction (pellet) and a cytosol fraction (supernatant) for Western blots. The 900×g nuclear pellet was suspended in the 2 ml lysis buffer containing 10% sucrose and 0.1% Triton X-100 and washed twice by centrifuging at 1000×g for 10 min, then resuspended in 1 ml of the same buffer without Triton X-100 for Western blots. The purity of the fractions was monitored by light microscopy. […] The samples were stored at -70° C. until analysis.
# (§2) 15 μl of human plasma, 15 μl of rat plasma, CSF or 50 μg of rat brain protein were denatured with 35 μl of sample buffer at 95° C. for 4 min. Denatured proteins were separated by 10% SDS-polyacrylamide gel electrophoresis with a 50 μg or 20 μg protein load for each sample for APPs or PKC, respectively, and electrophoretically transferred from gel to nitrocellulose membrane. […] The immunoreactive bands were developed using enhanced chemilumenescence (ECL. Amersham Life Sci., Little Chalfont, UK), following extensive washing with the blocking buffer. The PKC bands were verified in each case by competitively blocking the signal with the peptide corresponding to each of PKCs. The bands were quantitated by scanning densitometry. Quantitative comparisons were made between samples processed simultaneously on one blot.
# (§3) Male Sprague-Dawley rats (12 month) were obtained from Harlan-Sprague-Dawley, Inc. (Indianapolis, Ind.) and housed under controlled conditions of temperature humidity and light/dark cycle. […] Rat stomach and duodenum were collected for the quantitation of gastroduodenal lesions. […]
# [2] = test system: PKC .xi.; conditions: cytosolic or membranous fractions
# Method: as §1, §2
# (§4) Male Sprague-Dawley rats (12 month) were obtained from Harlan-Sprague-Dawley, Inc. (Indianapolis, Ind.) and housed under controlled conditions of temperature humidity and light/dark cycle. […] Rat blood, brain and 50 μl of cerebrospinal fluid were collected and stored at -70° C. for APPs and PKC analysis by Western blotting. Rat stomach and duodenum were collected for the quantitation of gastroduodenal lesions.
# (§5) Following separation of cytosolic or membrane proteins of rat brain protein by SDS-polyacrylamide gel electrophoresis, the proteins were transfer to nitrocellular membranes. The membranes were then probed for presence of PKCs using polyclonal antibodies against PKC α, βII, θ, ε, .xi., or γ.
# [3] = test system: PKC γ; conditions: cytosolic or membranous fractions
# Method: as §1, §2, §4, §5
# [4] = test system: PKC θ; conditions: cytosolic or membranous fractions
# Method: as §1, §2, §4, §5
# [5] = test system: PKC βII
# Method: as §1, §2, §4, §5
# [6] = test system: PKC α
# Method: as §1, §2, §4, §5
# [7] = test system: PKC ε; conditions: cytosolic or membranous fractions
# Method: as §1, §2, §4, §5
# [8] = test system: PKCα; test: PKCα translocation in NIH 3T3 cells (subcellular fractionation, Western blot); assay type: cell-based; conditions: 10 μg/ml
# Method: (§6) NIH 3T3 cells (American Type Culture Collection, Rockville, Md.) were cultured in DMEM supplemented with 10% FBS inoculated at 10^4 cells/35 […] dish. […] PMA and ibuprofen were dissolved in DMSO and stored in 5% DMSO stock solutions that were diluted a 1000-fold with culture media prior to use. […] The media containing freshly added PMA and ibuprofen were changed every 60 hours for both the foci formation assay and PKCα analysis by Western blot.
# as §1, §2
# [9] = test system: rat stomach and duodenum; test: Gastric ulcer index / gastroduodenal lesions in rat; assay type: in vivo; conditions: rat, in vivo
# Method: as §4
# The rat stomach and first 12 cm of the duodenum were opened and carefully shed with saline to remove any residual debris and fixed in 10% buffered formaldehyde. Tissues were examined macroscopically (×10) for lesions and hemorrhages. The evaluation of lesions or hemorrhages was based on the ulcer index (UI) reported by Leyck et al. (1985) and expressed as the sum total of lesions per treatment. The scoring units used ranged from 0 to 5, where zero represents no macroscopically visible lesions; 1 represents one to three small ulcers less than 4 mm; 2 represents more than three small ulcers; 3 represents ulcer hemorrhages with several small ulcers; 4 represents large (>4 mm) ulcers; 5 indicates tissue perforation.
# [10] = test system: APPs secretion by NIH 3T3 cell lines; conditions: 50 μM
# [11] = test system: APPs; conditions: 10 mg/kg P.O. bid, 7 days; remark: listed apart in the source
# Method: as §2, §4
# The cytosolic and membrane fractions were obtained by differential centrifugation of rat brain tissue treated by ibuprofen. […]
# [12] = test system: APPs (105 kDa); test: APPs (105 kDa) in human blood; assay type: in vivo
# Method: as §2
# Food intake was restricted until 4 h post dose. […] Over the next 6 days, ibuprofen was administered as 800 mg t.i.d. and subjects were instructed to return on day 3 and 5 for a single blood draw. […] Serum samples were stoiced -20° C. prior to analysis.
# [13] = target: T1, PKC (Rattus norvegicus, UniProt P05696); test: Protein kinase C activity assay (histone phosphorylation, partially purified rat brain PKC); assay type: biochemical; conditions: PMA stimulated, 2 min, 30° C.
# T1 construct: Partially purified PKCα from rat brain; purchased Promega (Madison, Wis.); host or cells: rat brain (tissue enzyme, partially purified)
# Method: The following were obtained from the Sigma Chemical Co. (St. […] Anti-PKCα antibody (affinity purified) and its C-terminal region peptide was obtained from Life Technologies (Gaithersburg, Md.). […] All other chemicals were of the highest available purity and were obtained from standard commercial sources. […] Following 2 min initial incubation at 30° C., kinase reactions were initiated by the addition of ^32 P-γ-ATP and enzyme and continued at 30° C. for 2 min. Control incubations contained all assay components except enzyme and ibuprofen. […] All samples were carried out in duplicate.
# [14] = test system: NIH 3T3 cells; test: Foci formation assay, inhibition of PMA induced neoplastic transformation of NIH 3T3 cells; assay type: cell-based; conditions: for inhibition of PMA induced foci formation / neoplastic transformation: PMA 0.02 μg/ml, 2% FBS, 6 weeks, ibuprofen 10 or 100 μg/ml
# Method: as §6
# Subsequent to washing with a tris/ saline buffer, the cells were stained with a solution of 4% aqueous Giemsa stain in phosphate buffer (pH 7.0). Foci of transformed cells were then visible by eye due to their high local density and verified by under light microscopy.
# [15] = test system: rat colon cancer; conditions: carcinogen induced; cited from earlier work
# [16] = test system: APP; conditions: 10 mg/kg P.O. bid, 7 days
# Method: as §1, §2, §3
# [17] = test system: A-427; conditions: cited from earlier work
# [18] = test system: lung and gastric cancer; conditions: carcinogen induced; cited from earlier work
# [19] = test system: MCF 7/s; conditions: cited from earlier work
# [20] = test system: UACC 375; conditions: cited from earlier work
# [21] = test system: mouse mammary glands cancer; conditions: carcinogen induced; cited from earlier work
# [22] = Estimated unbound fraction of ibuprofen in culture media; assay type: in vitro ADME
# [23] = cited from earlier work
# [24] = test system: Ht-29; conditions: cited from earlier work
# [25] = test system: neutrophil; conditions: by chemotactic agents; cited from earlier work
# [26] = test system: AD progression; conditions: 6-month, double-blind, placebo-controlled; cited from earlier work
# [27] = membrane fraction, 10 mg/kg bid 7 days, n = 4 mean ± S.D.
structure (smiles),measurement,setting,value
CC(C)Cc1ccc(C(C)C(=O)O)cc1 (racemic) [RS-ibuprofen],"Density of APP Bands, Cytosol",[1]; n = 4 mean ± S.D.,9.32 ± 5.35
same,effect on PKC .xi. content,[2],did not show a dramatic effect
same,effect on PKC γ content,[3],did not show a dramatic effect
same,effect on PKC θ content,[4],did not show a dramatic effect
same,rat brain PKC βII content (in words),[5]; 7 days of treatment,not significantly
same,Density of PKC βII Bands,[5]; [27],8.46 ± 3.68
same,rat brain PKC α content (in words),[6]; 7 days of treatment,not significantly
same,Density of PKC α Bands,[6]; [27],13.61 ± 5.15
same,effect on PKC ε content,[7],did not show a dramatic effect
same,PKCα detectable in the membrane fraction,[8]; 2 weeks of PMA,detectable in the membrane fraction
same,inhibition of PKCα translocation from cytosol to nuclear compartments,[8]; PMA 4 hours,completely blocked
same,"inhibition of PKCα translocation, racemate versus enantiomers",[8]; particularly 2 weeks of PMA,less potent than either of the enantiomers
same,gastropathy (in words),[9],induced serious gastric ulcers and hemorrhage
same,Density of APPs band,"[10]; 20 h culture, n = 2, mean ± S.D.",6.073 ± 0.55
same,APPs secretion in rat CSF (in words),[11],dramatically increased APPs secretion
same,"Density of APP Bands, CSF",[11]; n = 4 mean ± S.D.,13.63 ± 6.56
same,human blood APPs (105 kDa),"[12]; 1st dose (800 mg), 0 hour (before dose), n = 4, mean ± S.D.",1.95
same,duration of increased APPs (105 kDa) secretion,"[12]; after 7 days dosing, 800 mg t.i.d. oral",14 days
same,human blood APPs (105 kDa),"[12]; post 1st dose (800 mg), 1 hour, n = 4, mean ± S.D.",3.64
same,human blood APPs (105 kDa),"[12]; post 1st dose (800 mg), 3 hours, n = 4, mean ± S.D.",3.22
same,human blood APPs (105 kDa),"[12]; post 7 days dose (800 mg, tid), 1 hour, n = 4, mean ± S.D.",4.57
same,human blood APPs (105 kDa),"[12]; post 7 days dose (800 mg, tid), 1 day, n = 4, mean ± S.D.",6.15
same,human blood APPs (105 kDa),"[12]; post 7 days dose (800 mg, tid), 2 days, ND = Not detectable",4.77
same,human blood APPs (105 kDa),"[12]; post 7 days dose (800 mg, tid), 3 days, ND = Not detectable",4.33
same,human blood APPs (105 kDa),"[12]; post 7 days dose (800 mg, tid), 4 days, ND = Not detectable",3.37
same,human blood APPs (105 kDa),"[12]; post 7 days dose (800 mg, tid), 14 days, ND = Not detectable",3.77
same,duration of increased APPs (105 kDa) secretion,[12]; single oral 800 mg dose,1 days
same,concentration inhibiting PKC mediated histone phosphorylation,[13],2 µM
same,inhibition of PMA induced foci formation / neoplastic transformation,[14]; listed as Racemic ibuprofen,dramatically decreased
same,inhibition of PMA induced foci formation / neoplastic transformation,[14]; listed as racemic ibuprofen,inhibit the neoplastic transformation; also recorded: substantially inhibited
"CC(C)Cc1ccc(C(C)C(=O)O)cc1 (stereo not drawn) [ibuprofen, α-4-(2-methylpropyl) benzeneacetic acid]",anticancer activity,[15],demonstrated anticancer activity
same,content of membrane APP of rat brain (in words),[16],"decreased content of membrane APP of rat brain, but not significantly"
same,content of cytosolic APPs of rat brain (in words),[1],increased the content of cytosolic APPs
same,inhibition of proliferation,[17],inhibits the proliferation
same,APPs secretion (in words),[10]; 20 h,increased APPs secretion
same,anticancer activity,[18],demonstrated anticancer activity
same,inhibition of proliferation,[19],inhibits the proliferation
same,inhibition of proliferation,[20],inhibits the proliferation
same,anticancer activity,[21],demonstrated anticancer activity
same,fraction unbound,[22],~0.05
same,protein binding (in words),[23],highly protein bound
same,oral absorption,"[23]; suspensions, drops, caplets, chewable tablets",well absorbed orally
same,inhibition of proliferation,[24],inhibits the proliferation
same,effect on NIH 3T3 cell growth patterns without PMA,"[14]; DMSO vehicle, no PMA",no effect
same,blocking of neutrophil activation,[25],blocks neutrophil activation by chemotactic agents but this effect is not enantioselective
COc1ccc2c(c1)c(CC(=O)O)c(C)n2C(=O)c1ccc(Cl)cc1 [indomethacin],slowing AD progression,[26],very effective in slowing AD progression
